In US11419852B2, “Beta-lactam compounds or salts thereof for use in long-acting prevention or treatment of a glucose metabolism disorder” (GLYCOLYSIS BIOMED CO., LTD., priority 2019, dated 2022):
Marks after values point to notes of the source that are not given here.

Test: Body weight of mice recorded weekly
Assay type: in vivo
Method: Four to five weeks old db/db mice (BKS.Cg-Dock7^m+/+Lepr^db/JNarl) and m/m mice (BKS.Cg-Dock7^m+/Dock7^m+) were obtained from National Laboratory Animal Center ([…], Taiwan). […] PMI Nutrition International, Brentwood, Mo.) and water ad libitum. […] The mouse body weight (bw) and the amounts of water and food intake were recorded weekly for the entire study period.

[1] = Ex 3: db/db mice, daily dosing 3 weeks at doses of Table 10, Baseline
[2] = Ex 3: db/db mice, daily dosing 3 weeks at doses of Table 10, Final
[3] = Ex 3: db/db mice, daily dosing 3 weeks at doses of Table 10, Week 3
[4] = Ex 3: db/db mice, daily dosing 3 weeks at doses of Table 10, Week 6 (stopped for 3 weeks)
[5] = Ex 3: db/db mice, daily dosing 3 weeks at doses of Table 10, Week 9 (stopped for 6 weeks)

## C[C@@H](O)[C@H]1C(=O)N2C(C(=O)O)=C(S[C@@H]3CN[C@H](C(=O)Nc4cccc(C(=O)O)c4)C3)[C@H](C)[C@H]12 [DMH, ertapenem]
Ex 2, 0.1 mg/g bw and 0.4 mg/g bw
  Effect on body weight in db/db mice: positive effects of body weight lowering
Ex 2 G3 db/db, 0.3 mg/g bw/day (row printed 0.3 DMH), dosing 6 weeks, week 14
  Body weight: 43.94 ± 1.54^b
Ex 2 G3 db/db, 0.3 mg/g bw/day (row printed 0.3 DMH), dosing 6 weeks, week 15
  Body weight: 46.46 ± 1.39^b
Ex 2 G3 db/db, 0.3 mg/g bw/day (row printed 0.3 DMH), dosing 6 weeks, week 16
  Body weight: 47.68 ± 1.32^b
Ex 2 G3 db/db, 0.3 mg/g bw/day (row printed 0.3 DMH), dosing 6 weeks, week 17
  Body weight: 48.31 ± 1.38^b
Ex 2 G3 db/db, 0.3 mg/g bw/day (row printed 0.3 DMH), dosing 6 weeks, week 18
  Body weight: 49.57 ± 1.47^b
Ex 2 G3 db/db, 0.3 mg/g bw/day (row printed 0.3 DMH), dosing 6 weeks, week 19
  Body weight: 51.98 ± 1.66^b
Ex 2 G4 db/db, DMH i.p. 0.1 mg/g bw/day, dosing 6 weeks, Baseline
  Body weight: 29.44 ± 2.09^b
Ex 2 G4 db/db, DMH i.p. 0.1 mg/g bw/day, dosing 6 weeks, week 1
  Body weight: 29.21 ± 2.01^b
Ex 2 G4 db/db, DMH i.p. 0.1 mg/g bw/day, dosing 6 weeks, week 2
  Body weight: 29.95 ± 1.79^b
Ex 2 G4 db/db, DMH i.p. 0.1 mg/g bw/day, dosing 6 weeks, week 3
  Body weight: 32.38 ± 1.38^b
Ex 2 G4 db/db, DMH i.p. 0.1 mg/g bw/day, dosing 6 weeks, week 4
  Body weight: 33.49 ± 1.13^b
Ex 2 G4 db/db, DMH i.p. 0.1 mg/g bw/day, dosing 6 weeks, week 5
  Body weight: 35.72 ± 1.01^b
Ex 2 G4 db/db, DMH i.p. 0.1 mg/g bw/day, dosing 6 weeks, week 6
  Body weight: 36.73 ± 0.95^b
Ex 2 G4 db/db, DMH i.p. 0.1 mg/g bw/day, dosing 6 weeks, week 7
  Body weight: 36.68 ± 0.83^b
Ex 2 G4 db/db, DMH i.p. 0.1 mg/g bw/day, dosing 6 weeks, week 8
  Body weight: 37.83 ± 0.77^b
Ex 2 G4 db/db, DMH i.p. 0.1 mg/g bw/day, dosing 6 weeks, week 9
  Body weight: 38.46 ± 0.8^b
Ex 2 G4 db/db, DMH i.p. 0.1 mg/g bw/day, dosing 6 weeks, week 10
  Body weight: 39.43 ± 0.81^b
Ex 2 G4 db/db, DMH i.p. 0.1 mg/g bw/day, dosing 6 weeks, week 11
  Body weight: 40.86 ± 0.82^b
Ex 2 G4 db/db, DMH i.p. 0.1 mg/g bw/day, dosing 6 weeks, week 12
  Body weight: 42.59 ± 0.87^b
Ex 2 G4 db/db, DMH i.p. 0.1 mg/g bw/day, dosing 6 weeks, week 13
  Body weight: 44.21 ± 0.99^b
Ex 2 G4 db/db, DMH i.p. 0.1 mg/g bw/day, dosing 6 weeks, week 14
  Body weight: 43.56 ± 1.08^b
Ex 2 G4 db/db, DMH i.p. 0.1 mg/g bw/day, dosing 6 weeks, week 15
  Body weight: 45.90 ± 1.18^b
Ex 2 G4 db/db, DMH i.p. 0.1 mg/g bw/day, dosing 6 weeks, week 16
  Body weight: 46.80 ± 1.29^b
Ex 2 G4 db/db, DMH i.p. 0.1 mg/g bw/day, dosing 6 weeks, week 17
  Body weight: 47.21 ± 1.26^b
Ex 2 G4 db/db, DMH i.p. 0.1 mg/g bw/day, dosing 6 weeks, week 18
  Body weight: 48.14 ± 1.23^b
Ex 2 G4 db/db, DMH i.p. 0.1 mg/g bw/day, dosing 6 weeks, week 19
  Body weight: 50.91 ± 1.22^b
Ex 2 G5 db/db, DMH i.p. 0.2 mg/g bw/day, dosing 6 weeks, Baseline
  Body weight: 31.70 ± 1.46^b
Ex 2 G5 db/db, DMH i.p. 0.2 mg/g bw/day, dosing 6 weeks, week 1
  Body weight: 31.31 ± 1.48^b
Ex 2 G5 db/db, DMH i.p. 0.2 mg/g bw/day, dosing 6 weeks, week 2
  Body weight: 31.81 ± 1.12^bc
Ex 2 G5 db/db, DMH i.p. 0.2 mg/g bw/day, dosing 6 weeks, week 3
  Body weight: 34.36 ± 0.75^bc
Ex 2 G5 db/db, DMH i.p. 0.2 mg/g bw/day, dosing 6 weeks, week 4
  Body weight: 35.55 ± 0.61^bc
Ex 2 G5 db/db, DMH i.p. 0.2 mg/g bw/day, dosing 6 weeks, week 5
  Body weight: 37.76 ± 0.49^bc
Ex 2 G5 db/db, DMH i.p. 0.2 mg/g bw/day, dosing 6 weeks, week 6
  Body weight: 39.06 ± 0.54^bc
Ex 2 G5 db/db, DMH i.p. 0.2 mg/g bw/day, dosing 6 weeks, week 7
  Body weight: 39.07 ± 0.45^bc
Ex 2 G5 db/db, DMH i.p. 0.2 mg/g bw/day, dosing 6 weeks, week 8
  Body weight: 39.99 ± 0.39^bc
Ex 2 G5 db/db, DMH i.p. 0.2 mg/g bw/day, dosing 6 weeks, week 9
  Body weight: 40.63 ± 0.27^bcd
Ex 2 G5 db/db, DMH i.p. 0.2 mg/g bw/day, dosing 6 weeks, week 10
  Body weight: 41.39 ± 0.29^b
Ex 2 G5 db/db, DMH i.p. 0.2 mg/g bw/day, dosing 6 weeks, week 11
  Body weight: 42.98 ± 0.35^b
Ex 2 G5 db/db, DMH i.p. 0.2 mg/g bw/day, dosing 6 weeks, week 12
  Body weight: 44.66 ± 0.38^b
Ex 2 G5 db/db, DMH i.p. 0.2 mg/g bw/day, dosing 6 weeks, week 13
  Body weight: 46.52 ± 0.45^b
Ex 2 G5 db/db, DMH i.p. 0.2 mg/g bw/day, dosing 6 weeks, week 14
  Body weight: 46.10 ± 0.51^b
Ex 2 G5 db/db, DMH i.p. 0.2 mg/g bw/day, dosing 6 weeks, week 15
  Body weight: 48.58 ± 0.55^b
Ex 2 G5 db/db, DMH i.p. 0.2 mg/g bw/day, dosing 6 weeks, week 16
  Body weight: 49.65 ± 0.63^b
Ex 2 G5 db/db, DMH i.p. 0.2 mg/g bw/day, dosing 6 weeks, week 17
  Body weight: 49.96 ± 0.68^b
Ex 2 G5 db/db, DMH i.p. 0.2 mg/g bw/day, dosing 6 weeks, week 18
  Body weight: 50.71 ± 0.87^b
Ex 2 G5 db/db, DMH i.p. 0.2 mg/g bw/day, dosing 6 weeks, week 19
  Body weight: 52.73 ± 1.04^b
Ex 2 G6 db/db, DMH i.p. 0.4 mg/g bw/day, dosing 6 weeks, Baseline
  Body weight: 31.61 ± 1.03^b
Ex 2 G6 db/db, DMH i.p. 0.4 mg/g bw/day, dosing 6 weeks, week 1
  Body weight: 31.23 ± 0.98^b
Ex 2 G6 db/db, DMH i.p. 0.4 mg/g bw/day, dosing 6 weeks, week 2
  Body weight: 31.62 ± 0.77^bc
Ex 2 G6 db/db, DMH i.p. 0.4 mg/g bw/day, dosing 6 weeks, week 3
  Body weight: 33.98 ± 0.54^b
Ex 2 G6 db/db, DMH i.p. 0.4 mg/g bw/day, dosing 6 weeks, week 4
  Body weight: 34.29 ± 0.59^b
Ex 2 G6 db/db, DMH i.p. 0.4 mg/g bw/day, dosing 6 weeks, week 5
  Body weight: 36.44 ± 0.71^b
Ex 2 G6 db/db, DMH i.p. 0.4 mg/g bw/day, dosing 6 weeks, week 6
  Body weight: 37.16 ± 0.8^b
Ex 2 G6 db/db, DMH i.p. 0.4 mg/g bw/day, dosing 6 weeks, week 7
  Body weight: 37.16 ± 0.93^b
Ex 2 G6 db/db, DMH i.p. 0.4 mg/g bw/day, dosing 6 weeks, week 8
  Body weight: 38.67 ± 1.24^b
Ex 2 G6 db/db, DMH i.p. 0.4 mg/g bw/day, dosing 6 weeks, week 9
  Body weight: 39.72 ± 1.36^bc
Ex 2 G6 db/db, DMH i.p. 0.4 mg/g bw/day, dosing 6 weeks, week 10
  Body weight: 40.81 ± 1.34^b
Ex 2 G6 db/db, DMH i.p. 0.4 mg/g bw/day, dosing 6 weeks, week 11
  Body weight: 42.61 ± 1.31^b
Ex 2 G6 db/db, DMH i.p. 0.4 mg/g bw/day, dosing 6 weeks, week 12
  Body weight: 44.54 ± 1.63^b
Ex 2 G6 db/db, DMH i.p. 0.4 mg/g bw/day, dosing 6 weeks, week 13
  Body weight: 45.69 ± 1.86^b
Ex 2 G6 db/db, DMH i.p. 0.4 mg/g bw/day, dosing 6 weeks, week 14
  Body weight: 45.08 ± 1.89^b
Ex 2 G6 db/db, DMH i.p. 0.4 mg/g bw/day, dosing 6 weeks, week 15
  Body weight: 47.29 ± 1.95^b
Ex 2 G6 db/db, DMH i.p. 0.4 mg/g bw/day, dosing 6 weeks, week 16
  Body weight: 48.79 ± 1.95^b
Ex 2 G6 db/db, DMH i.p. 0.4 mg/g bw/day, dosing 6 weeks, week 17
  Body weight: 48.99 ± 1.87^b
Ex 2 G6 db/db, DMH i.p. 0.4 mg/g bw/day, dosing 6 weeks, week 18
  Body weight: 50.70 ± 1.87^b
Ex 2 G6 db/db, DMH i.p. 0.4 mg/g bw/day, dosing 6 weeks, week 19
  Body weight: 53.56 ± 1.99^b
[1]
  Body weight: 29.3 ± 1^b
[2]
  Body weight: 38.3 ± 1^c
[3]
  Body weight: 33.5 ± 1^cd
[4]
  Body weight: 35.1 ± 1^b
[5]
  Body weight: 40.0 ± 1^c

## CN(C)C(=N)N=C(N)N [Met, metformin]
Ex 2 G3 db/db, Met oral 0.3 mg/g bw/day, dosing 6 weeks, Baseline
  Body weight: 31.17 ± 0.47^b
Ex 2 G3 db/db, Met oral 0.3 mg/g bw/day, dosing 6 weeks, week 1
  Body weight: 30.81 ± 0.48^b
Ex 2 G3 db/db, Met oral 0.3 mg/g bw/day, dosing 6 weeks, week 2
  Body weight: 32.61 ± 0.46^bc
Ex 2 G3 db/db, Met oral 0.3 mg/g bw/day, dosing 6 weeks, week 3
  Body weight: 35.97 ± 0.57^cd
Ex 2 G3 db/db, Met oral 0.3 mg/g bw/day, dosing 6 weeks, week 4
  Body weight: 37.47 ± 0.79^c
Ex 2 G3 db/db, Met oral 0.3 mg/g bw/day, dosing 6 weeks, week 5
  Body weight: 40.15 ± 0.93^c
Ex 2 G3 db/db, Met oral 0.3 mg/g bw/day, dosing 6 weeks, week 6
  Body weight: 41.82 ± 0.98^d
Ex 2 G3 db/db, Met oral 0.3 mg/g bw/day, dosing 6 weeks, week 7
  Body weight: 42.38 ± 1.25^d
Ex 2 G3 db/db, Met oral 0.3 mg/g bw/day, dosing 6 weeks, week 8
  Body weight: 43.04 ± 1.54^d
Ex 2 G3 db/db, Met oral 0.3 mg/g bw/day, dosing 6 weeks, week 9
  Body weight: 43.68 ± 1.58^d
Ex 2 G3 db/db, Met oral 0.3 mg/g bw/day, dosing 6 weeks, week 10
  Body weight: 43.40 ± 1.4^b
Ex 2 G3 db/db, Met oral 0.3 mg/g bw/day, dosing 6 weeks, week 11
  Body weight: 44.15 ± 1.37^b
Ex 2 G3 db/db, Met oral 0.3 mg/g bw/day, dosing 6 weeks, week 12
  Body weight: 45.24 ± 1.37^b
Ex 2 G3 db/db, Met oral 0.3 mg/g bw/day, dosing 6 weeks, week 13
  Body weight: 44.68 ± 1.6^b
[1]
  Body weight: 28.9 ± 1^b
[2]
  Body weight: 37.0 ± 1^c
[3]
  Body weight: 35.9 ± 1^d
[4]
  Body weight: 39.5 ± 1^c
[5]
  Body weight: 39.7 ± 1^c
